Data set [1] concerns the target T1, Sulfolobus solfataricus SsoPox variant W263L, SEQ ID NO: 11 (Saccharolobus solfataricus, UniProt Q97VT7, W263L).
T1 construct: made in house; host or cells: E. coli BL21(DE3)-pGro7/GroEL
In kind it is biochemical.

Data set [2] has as its target T2, Sulfolobus solfataricus SsoPox variant W263I, SEQ ID NO: 15 (Saccharolobus solfataricus, UniProt Q97VT7, W263I).
Data set [3] has as its target T3, Sulfolobus solfataricus SsoPox variant W263F (of SEQ ID NO: 3) (Saccharolobus solfataricus, UniProt Q97VT7, W263F).
Data set [4] concerns the target T4, Sulfolobus solfataricus SsoPox variant W263A, SEQ ID NO: 13 (Saccharolobus solfataricus, UniProt Q97VT7, W263A).
Data set [5] deals with T5, Sulfolobus solfataricus SsoPox variant W263M, SEQ ID NO: 9 (Saccharolobus solfataricus, UniProt Q97VT7, W263M).
T5 construct: made in house; host or cells: E. coli BL21(DE3)-pGro7/GroEL
The data set is classed as biochemical.

Data set [6] has as its target T6, Sulfolobus solfataricus SsoPox variant W263V, SEQ ID NO: 17 (Saccharolobus solfataricus, UniProt Q97VT7, W263V).
Data set [7] has as its target T7, Sulfolobus solfataricus SsoPox, wild type (wt), SEQ ID NO: 3 (Saccharolobus solfataricus, UniProt Q97VT7).
Data set [8] deals with T8, Sulfolobus solfataricus SsoPox variant W263T, SEQ ID NO: 19 (Saccharolobus solfataricus, UniProt Q97VT7, W263T).
Data set [9] has as its target T7, Sulfolobus solfataricus SsoPox, wild type (wt), SEQ ID NO: 3. Further details: made in house; host or cells: E. coli BL21(DE3)-pGro7/GroEL. The following applies: cited from earlier work.
For data set [10], the target named is T1, Sulfolobus solfataricus SsoPox variant W263L, SEQ ID NO: 11. The data set is classed as biochemical. This is another data set of the same source.
Data set [11] has as its target T9, Sulfolobus solfataricus SsoPox variant αsA1 (C258L/I261F/W263A), SEQ ID NO: 21 (Saccharolobus solfataricus, UniProt Q97VT7, C258L/I261F/W263A).
T9 construct: made in house; host or cells: E. coli BL21(DE3)-pGro7/GroEL
T9 sequence (Q97VT7 1-314 C258L/I261F/W263A): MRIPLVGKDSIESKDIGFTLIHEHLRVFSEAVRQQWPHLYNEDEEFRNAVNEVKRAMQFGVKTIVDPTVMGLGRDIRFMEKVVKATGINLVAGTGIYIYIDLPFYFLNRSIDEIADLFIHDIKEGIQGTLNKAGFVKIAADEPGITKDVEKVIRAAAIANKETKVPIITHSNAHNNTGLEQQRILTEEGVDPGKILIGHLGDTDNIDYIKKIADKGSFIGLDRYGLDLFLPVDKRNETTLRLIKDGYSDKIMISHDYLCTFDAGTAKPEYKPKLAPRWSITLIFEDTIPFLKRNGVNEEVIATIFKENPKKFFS
In kind it is biochemical. To be noted: pH 8.

Data set [12] concerns the target T5, Sulfolobus solfataricus SsoPox variant W263M, SEQ ID NO: 9. In kind it is biochemical. This is another data set of the same source.
Data set [13] deals with T2, Sulfolobus solfataricus SsoPox variant W263I, SEQ ID NO: 15. The data set is classed as biochemical. Also on record: made in house; host or cells: E. coli BL21(DE3)-pGro7/GroEL.
In data set [14] the target is T8, Sulfolobus solfataricus SsoPox variant W263T, SEQ ID NO: 19. In kind it is biochemical. Also on record: made in house; host or cells: E. coli BL21(DE3)-pGro7/GroEL.
Data set [15] deals with T6, Sulfolobus solfataricus SsoPox variant W263V, SEQ ID NO: 17. In kind it is biochemical. Also on record: made in house; host or cells: E. coli BL21(DE3)-pGro7/GroEL.
In data set [16] the target is T4, Sulfolobus solfataricus SsoPox variant W263A, SEQ ID NO: 13. The data set is classed as biochemical. Further details: made in house; host or cells: E. coli BL21(DE3)-pGro7/GroEL.
Data set [17] addresses T3, Sulfolobus solfataricus SsoPox variant W263F (of SEQ ID NO: 3). The data set is classed as biochemical. Also on record: made in house; host or cells: E. coli BL21(DE3)-pGro7/GroEL.
Data set [18] has as its target T7, Sulfolobus solfataricus SsoPox, wild type (wt), SEQ ID NO: 3. The data set is classed as biochemical. Further details: made in house; host or cells: E. coli BL21(DE3)-pGro7/GroEL.
The next data set relates to 3-oxo-C12 AHL. In kind it is cell-based, Pseudomonas aeruginosa.
Data set [19] is classed as physicochemical. To be noted: pH 8.

Values joined by “and” are separate entries in the source; they are usually repeats but may differ in a detail not shown here. Equal values may be shown once. Read-outs that look alike come from different tables or passages of the source.

Regarding `CCCCCCCCCC(=O)CC(=O)N[C@H]1CCOC1=O` [3-oxo-C12 AHL], the Enhancement/wt in data set [1] was 0; in data set [2], 54.7 and 45.5 ± 18.8; in data set [3] it was 1.5 and 1.3 ± 0.5; in [4] it was 0.42; in data set [5], 0; in data set [6], 65.8 and 54.5 ± 20.4. Moreover, the Enhancement/wt was 1 in [7]; 25.6 and 21.2 ± 7.2 in data set [8]. Further, the ability to hydrolyse entry in data set [1], in data set [4] and in data set [5] was “lost the ability to hydrolyse” in each case. Moreover, the kcat amounted to 1.80 ± 0.05 s⁻¹ in [2] (pH 8.3), 0.41 ± 0.02 s⁻¹ in data set [3] (pH 8.3), 3.00 ± 0.07 s⁻¹ in [6] (pH 8.3) and 6.44 ± 0.22 s⁻¹ in data set [8] (pH 8.3). Besides, the kcat/KM in data set [3] (pH 8.3) is recorded as 2.81(±0.65) × 10^3 M^−1s^−1; in data set [6] (pH 8.3) it was 1.21(±0.26) × 10^5 M^−1s^−1; in [7] it was 2.96(±0.99)×10^3 M^−1s^−1; in data set [8] (pH 8.3), 4.70(±0.67) × 10^4 M^−1s^−1.

With `COP(=S)(OC)Oc1ccc([N+](=O)[O-])cc1` [Methyl-parathion, methyl-parathion], in data set [9] (pH 8), the Catalytic activity was 9.09 ± 0.9 M⁻¹ s⁻¹. In [10], the Km amounted to 168 ± 31 µM, the kcat is 1.22(±0.13) × 10^−1 s^−1 and the kcat/KM came to 728 ± 156 M⁻¹ s⁻¹. In addition, the Catalytic activity in [11] is 3.68(±0.5) · 10^1 M^−1s^−1.

As to `CCOP(=O)(OCC)Oc1ccc([N+](=O)[O-])cc1` [Paraoxon, paraoxon], the Enhancement/wt in data set [12] amounted to 14.1; in data set [13] it was 2.3; in [10], 4.6; in data set [14], 2.0; in data set [15], 1.7; in data set [16], 6.8. Besides, the Enhancement/wt in [17] came out at 23.3; in data set [18] it was 1. Further, the Km was 931 ± 163 µM in data set [12] (pH 8), 24300 ± 3720 µM in data set [9] (pH 8), 1490 ± 351 µM in data set [16] (pH 8) and 700 ± 146 µM in [17] (pH 8). Also, the kcat in data set [12] (pH 8) was 6.82 ± 0.57 s⁻¹; in data set [9] (pH 8) it was 12.59 ± 1.26 s⁻¹; in data set [10], 3.17 ± 0.18 s⁻¹ and 3.13 ± 0.25 s⁻¹; in [16] (pH 8), 5.29 ± 0.69 s⁻¹; in [17] (pH 8) it was 8.47 ± 0.53 s⁻¹. The kcat/KM in data set [12] (pH 8) is given as 7.33(±1.9) × 10^3 M^−1s^−1; in data set [13] (pH 8), 1.21(±0.59) × 10^3 M^−1s^−1; in data set [9], 6.41(±1.51)×10^3 M^−1s^−1; in [9] (pH 8), 5.19(±1.31) × 10^2 M^−1s^−1; in data set [10] (pH 8) it was 2.37(±0.33) × 10^3 M^−1s^−1; in data set [14] (pH 8), 1.06(±0.03) × 10^3 M^−1s^−1. The kcat/KM in [15] (pH 8) was 8.83(±0.3) × 10^2 M^−1s^−1; in [16] (pH 8), 3.55(±1.30)×10^3 M^−1s^−1; in data set [17] (pH 8) it was 1.21(±0.33)×10^4 M^−1s^−1. The Catalytic activity is 5.19(±1.31) · 10^2 M^−1s^−1 in data set [9] (pH 8) and 3.37(±0.94) · 10^4 M^−1s^−1 in data set [11]. Besides, the “catalytic efficiency improvement induced by SDS” value in data set [10] stood at 19.8 times; in data set [18] it was 12.4 times.

B1: SsoPox W263A: SEQ ID NO: 3 with substitution of tryptophan W in position 263 by alanine A (protein, listed as Sulfolobus solfataricus)
chain: MRIPLVGKDSIESKDIGFTLIHEHLRVFSEAVRQQWPHLYNEDEEFRNAVNEVKRAMQFGVKTIVDPTVMGLGRDIRFMEKVVKATGINLVAGTGIYIYIDLPFYFLNRSIDEIADLFIHDIKEGIQGTLNKAGFVKIAADEPGITKDVEKVIRAAAIANKETKVPIITHSNAHNNTGLEQQRILTEEGVDPGKILIGHLGDTDNIDYIKKIADKGSFIGLDRYGLDLFLPVDKRNETTLRLIKDGYSDKIMISHDYCCTIDAGTAKPEYKPKLAPRWSITLIFEDTIPFLKRNGVNEEVIATIFKENPKKFFS
Consider B1, for which, in the data set with 3-oxo-C12 AHL, the “relative lactonase activity in screening (3-oxo-C12 AHL hydrolysis)” value (from here on “relative lactonase activity in screening”) was “selected for a potential lactonase activity improvement”.

B2: SsoPox W263T: SEQ ID NO: 3 with substitution of tryptophan W in position 263 by threonine T (protein, listed as Sulfolobus solfataricus)
chain: MRIPLVGKDSIESKDIGFTLIHEHLRVFSEAVRQQWPHLYNEDEEFRNAVNEVKRAMQFGVKTIVDPTVMGLGRDIRFMEKVVKATGINLVAGTGIYIYIDLPFYFLNRSIDEIADLFIHDIKEGIQGTLNKAGFVKIAADEPGITKDVEKVIRAAAIANKETKVPIITHSNAHNNTGLEQQRILTEEGVDPGKILIGHLGDTDNIDYIKKIADKGSFIGLDRYGLDLFLPVDKRNETTLRLIKDGYSDKIMISHDYCCTIDTGTAKPEYKPKLAPRWSITLIFEDTIPFLKRNGVNEEVIATIFKENPKKFFS
For the molecule B2, the “relative lactonase activity in screening” value in the data set on 3-oxo-C12 AHL was “selected for a potential lactonase activity improvement”. This molecule also displayed a melting temperature in data set [19] of 89.2±0.4 °C.

B3: SsoPox W263V: SEQ ID NO: 3 with substitution of tryptophan W in position 263 by valine V (protein, listed as Sulfolobus solfataricus)
chain: MRIPLVGKDSIESKDIGFTLIHEHLRVFSEAVRQQWPHLYNEDEEFRNAVNEVKRAMQFGVKTIVDPTVMGLGRDIRFMEKVVKATGINLVAGTGIYIYIDLPFYFLNRSIDEIADLFIHDIKEGIQGTLNKAGFVKIAADEPGITKDVEKVIRAAAIANKETKVPIITHSNAHNNTGLEQQRILTEEGVDPGKILIGHLGDTDNIDYIKKIADKGSFIGLDRYGLDLFLPVDKRNETTLRLIKDGYSDKIMISHDYCCTIDVGTAKPEYKPKLAPRWSITLIFEDTIPFLKRNGVNEEVIATIFKENPKKFFS
For B3, the “relative lactonase activity in screening” value in the data set on 3-oxo-C12 AHL is “selected for a potential lactonase activity improvement”. This molecule also showed a melting temperature in data set [19] of 84.1±1.6 °C.

By kcat is commonly meant the maximal rate divided by the concentration of active sites. The term kcat/KM denotes the turnover number divided by the Michaelis constant. The term Km denotes the substrate concentration at which the rate is half of its maximum.

The values are drawn from patent US10072252B2 (priority 2013, dated 2018).
